From patent publication US5530095A, “Peptides of melanin concentrating hormone precursor” (The Salk Institute for Biological Studies, priority 1995, dated 1996)
Bridge positions count the residues as written; N and C are the ends. Ends that are not written are not given here. Peptide text beside a SMILES is read from it.

How the values were obtained:
[1] = test system: rabbit anti-salmon MCH antibody (Antibody PBL #171); assay: Radioimmunoassay based on rabbit anti-salmon MCH antibody PBL #171 with 125I-salmon MCH tracer; format: binding; conditions: for cross-reactivity in the salmon MCH radioimmunoassay: Antibody PBL #171
Experimental: Salmon MCH, having the formula [drawing 7] is synthesized and purified as described in Example I. It is then conjugated to human alpha-globulins (U.S. Biochemicals, Frac IV) via glutaraldehyde by a reaction well known in the art. The salmon MCH-human alpha-globulins conjugate is diluted with physiological saline (0.9%s/v) to a final concentration of 1 mg total protein per milliliter Freund's Complete Adjuvant Modified M. butyricum (Calbiochem) is emulsified with an equal volume of saline containing either 1 mg conjugate/ml (for initial injections) or 0.5 mg conjugate/ml (for boosters). For each immunization, the rabbits receive a total of 1 ml emulsion in 20-30 intradermal sites; they are injected every 2 weeks and bled through an ear vein 7 days after each booster. Blood is allowed to clot, and serum is separated from cells by centrifugation. The antiserum from each bleeding is characterized with respect to titer and affinity. Some of this antiserum is labelled PBL #171.
Salmon MCH (1 μg) is radiolabelled using 1 mCurie Na^125 I (New England Nuclear, NEZ 033L) and 1 μg Chloramine T in a total volume of 40 μl of 1.25M sodium phosphate buffer, pH 7.5. Reaction is allowed to proceed for 30-45 seconds and then immediately quenched by the addition of 10 mg bovine serum albumin (BSA). ^125 I-salmon MCH is then purified by adsorption and elution from a BondElut C18 cartridge (Analytichem International). The eluant from the C18 cartridge is reduced to about 200 μl using a Savant Speed-Vac and then further purified by HPLC using a Vydac C18 column, 0.46×25 cm, 5 μm, 300 Å pore size. Buffer A is 0.1% trifluoroacetic acid (TFA); buffer B is 60% acetonitrile in 0.1% TFA. ^125 I-salmon MCH is loaded at 35% B at a flow rate of 1.5 ml/min, and a gradient is then run to 70% B in 40 minutes. Peak tubes of radioactivity are made 0.5% final in BSA. Several peaks of radioactivity are reproducibly eluted, and the first major zone of radioactivity is routinely used for the radioimmunoassay.
Throughout the purification, fractions are monitored using an RIA based upon this rabbit anti-salmon MCH antibody. Aliquots for assay are transferred into glass tubes containing BSA (10 μl of 10 mg/ml) and dried in a Savant Speed Vac. Fractions are resuspended in RIA assay buffer and pH checked and adjusted if necessary with NaOH. The radioimmunoassay is carried out using chilled reagents and with tubes partially immersed in ice water. On day one, 100 μl of buffer with Antibody PBL #171 1/24,000 dilution (1/120,000 final dilution) is added to glass tubes containing standard or test samples or buffer only in a volume of 300 μl. All treatments are tested in duplicate. Buffer is 0.1M sodium chloride, 0.05M sodium phosphate, 0.025M ethylenediaminetetraacetic acid (EDTA), 0.1% sodium azide, pH 7.5 (SPEA buffer) with 0.1% BSA. Standards ranging from 0.5 to 2000 pg of synthetic salmon MCH are used. Samples are tested at 2-5 dose levels. After these additions, tubes are vortexed and incubated at 4 ° C. for 24 hours. On day two, 20,000 cpm of ^125 -salmon MCH with 0.5% normal rabbit serum diluted in SPEA buffer +0.1% BSA is added in a volume of 100 μl to all tubes. The tubes are vortexed and returned to the cold for approximately 24 hours. On day three, tracer bound to antibody is precipitated with sheep anti-rabbit gamma globulins (100 μl, 1/40 dilution) and 0.5 ml of 10% (w/v) polyethylene glycol (SIGMA, MW=6,000 to 8,000). Tubes are vortexed and incubated 15 to 30 minutes at room temperature. Tubes are washed with 1 ml of SPEA buffer and centrifuged at 4° C. for 30-45 minutes at 2000× g. Supernatants are decanted, and pellets are counted in a gamma counter. Results are calculated using a standard logit/log radioimmunoassay data processing program NICHD RRB, NIH.

[2] = test system: rat pituitary halves (secretion of ACTH); assay: In vitro assay using rat pituitary halves to monitor secretion of ACTH; format: cell-based
Experimental: In vitro assays are performed with the mammalian MCH and the synthetic salmon MCH peptides, using rat pituitary halves to monitor for the secretion of ACTH. Assays of this type are described in more detail in Proc. Natl. Acad. Sci., 85, 5556-5560 (1988). […] As a result, it is believed that mammalian MCH should be useful as a natural, peptide regulator of the pituitary-adrenal axis. It is likewise believed that mammalian MCH peptides will be useful for clinical application in the treatment of pigment disorders as well as in the diagnosis and therapy of melanoma. It is also believed that they will be effective in the treatment of certain forms of dementia and may have uses in connection with nerve damage situations.

[3] = Biological potency in mammalian assays
[4] = test system: melanosomes in amphibians; conditions: cited from earlier work
fish melanophores = conditions: cited from earlier work
[5] = test system: antibodies against human GRF; assay: Cross-reaction with antibodies against human GRF; format: binding; conditions: suggested by homology of human GRF 30-37 with NGE 12-19
Text: The sequences of the NGE's correspond to the sequences of amino acids 110-128 of the MCH precursors (see Tables 1 and 2, below). […] It is thought that NGE's, like NEI, have a biological function in vivo.

| Compound | cross-reactivity in the salmon MCH radioimmunoassay [1] | further results |
| --- | --- | --- |
| NC(=O)CC[C@@H]1NC(=O)[C@H](Cc2ccccc2)NC(=O)[C@H](Cc2ccc(O)cc2)NC(=O)[C@@H](N)CSSC[C@@H](C(=O)N2CCC[C@H]2C(=O)N[C@@H](CCCN=C(N)N)C(=O)NCC(N)=O)NC(=O)[C@H](CC(N)=O)NC1=O [arginine vasopressin] | no cross-reactivity | – |
| CSCC[C@@H]1NC(=O)[C@@H](NC(=O)[C@H](CCCNC(=N)N)NC(=O)[C@H](CC(C)C)NC(=O)[C@H](CCSC)NC(=O)[C@H](CC(=O)O)NC(=O)[C@H](Cc2ccccc2)NC(=O)[C@@H](N)CC(=O)O)CSSC[C@@H](C(=O)N[C@@H](Cc2c[nH]c3ccccc23)C(=O)N[C@@H](CCC(N)=O)C(=O)N[C@H](C(=O)O)C(C)C)NC(=O)[C@@H]2CCCN2C(=O)[C@H](CCCNC(=N)N)NC(=O)[C@H](Cc2ccc(O)cc2)NC(=O)[C@H](C(C)C)NC(=O)[C@H](CCCNC(=N)N)NC(=O)CNC(=O)[C@H](CC(C)C)NC1=O [mammalian MCH] | – | modulation of ACTH secretion/production [2]: very potent modulators of ACTH production; biological potency in mammalian assays [3]: more potent reaction than the alpha-MSH and beta-MSH antagonists; displacement in radioimmunoassays ([1]; radioimmunoassays also run with synthetic salmon MCH): shows displacement |
| CC[C@H](C)[C@@H]1NC(=O)[C@H](Cc2ccc(O)cc2)NC(=O)[C@@H](N)CSSC[C@@H](C(=O)N2CCC[C@H]2C(=O)N[C@@H](CC(C)C)C(=O)NCC(N)=O)NC(=O)[C@H](CC(N)=O)NC(=O)[C@H](CCC(N)=O)NC1=O [oxytocin] | no cross-reactivity | – |
| CSCC[C@@H]1NC(=O)[C@@H](NC(=O)[C@H](CCCNC(=N)N)NC(=O)[C@H](CCSC)NC(=O)[C@@H](NC(=O)[C@@H](N)CC(=O)O)[C@@H](C)O)CSSC[C@@H](C(=O)N[C@@H](Cc2c[nH]c3ccccc23)C(=O)N[C@@H](CCC(=O)O)C(=O)N[C@H](C(=O)O)C(C)C)NC(=O)[C@@H]2CCCN2C(=O)[C@H](CCCNC(=N)N)NC(=O)[C@H](Cc2ccc(O)cc2)NC(=O)[C@H](C(C)C)NC(=O)[C@H](CCCNC(=N)N)NC(=O)CNC(=O)[C@H](C(C)C)NC1=O [salmon MCH] (H-DTMRCMVGRVYRPCWEV-OH; disulfide 5-14) | – | modulation of ACTH secretion/production [2]: substantially no effect on the secretion of ACTH; biological potency in mammalian assays [3]: extremely little biological potency; effect on melanosomes in amphibians [4]: causing dispersal of melanosomes; melanosome aggregation (fish melanophores): induces melanosome aggregation; EC50 in the radioimmunoassay ([1]; Antibody PBL #171 1/120,000 final dilution, 125I-salmon MCH tracer, n=10): 18.5 ± 3.2 pg |
| Gly-XNGE -Phe-Pro-Ala-Glu-Asn-Gly-Val-Gln-Asn-Thr-Glu-Ser-Thr-Gln-Glu | – | cross-reaction of anti-GRF antibodies [5]: cross-react |
| GnRH: GnRH peptide hormone (QHWSYGLRPG; ends and bridges not checked; UniProt P01148 24-33, looked up) | no cross-reactivity | – |
| SS-14: SS-14 peptide tested for RIA cross-reactivity (AGCKNFFWKTFTSC; ends and bridges not checked; cysteine pairing not given here; UniProt P61278 103-116, looked up) | no cross-reactivity | – |
| SS-28: SS-28 peptide tested for RIA cross-reactivity (SANSNPAMAPRERKAGCKNFFWKTFTSC; ends and bridges not checked; cysteine pairing not given here; UniProt P61278 89-116, looked up) | no cross-reactivity | – |
| human GRF(1-40)-OH: human growth hormone releasing factor (1-40), free acid (YADAIFTNSYRKVLGQLSARKLLQDIMSRQQGESNQERGA-OH; UniProt P01286 32-71, looked up, fragment) | no cross-reactivity | – |
| rat ACTH: rat ACTH peptide hormone (SYSMEHFRWGKPVGKKRRPVKVYPNVAENESAEAFPLEF; Corticotropin; UniProt P01194 124-162, looked up) | no cross-reactivity | – |
| rat CRF: rat corticotropin-releasing factor (SEEPPISLDLTFHLLREVLEMARAEQLAQQAHSNRKLMEII; ends and bridges not checked; UniProt P01143 145-185, looked up) | no cross-reactivity | – |
| rat GRF: rat growth hormone releasing factor (HADAIFTSSYRRILGQLYARKLLHEIMNRQQGERNQEQRSRFN; Somatoliberin; UniProt P09916 31-73, looked up) | no cross-reactivity | – |
| β-MSH | no cross-reactivity | – |
| β-endorphin (YGGFMTSEKSQTPLVTLFKNAIIKNAYKKGE; Beta-endorphin; UniProt P01189 237-267, looked up) | no cross-reactivity | – |
